row,melting point,Structure (SMILES)
1,55 to 56 °C,CCCCN(Sc1nc2ccccc2s1)C(C)(C)C [N-n-butyl-N-t-butylbenzothiazole-2-sulfenamide]
2,60 to 61 °C,CCN(Sc1nc2ccccc2s1)C(C)(C)C [N-ethyl-N-t-butylbenzothiazole-2-sulfenamide]
3,56 to 58 °C,CN(Sc1nc2ccccc2s1)C(C)(C)C [N-methyl-N-t-butylbenzothiazole-2-sulfenamide]

# Reference: patent publication US20110124787A1, “RUBBER COMPOSITION” (BRIDGESTONE CORPORATION, priority 2008, published 2011)
